Legend:
BJ fibroblasts = experiment: Albumin and α-fetoprotein gene expression by qPCR in transfected fibroblasts; format: cell-based, human; conditions: Example 13, 5 consecutive days, 6-well plate
Text: RPL19 (Hs02338565_gH) was used for endogenous control assays. The ViiA 7 Real Time PCR System (Applied Biosystems) was used to perform and analyze qPCRs. If gene expression was not detectable in a sample, an artificial cycle threshold of 41 was applied to allow for comparison.
Reprogramming experiments were generally performed as follows. Initial reprogramming experiments used mRNA pools containing six different mRNAs encoding the following six transcription factors: FOXA1, FOXA2, FOXA3, HNF4A, HNF1A, and GATA4. This six transcription factor pool containing mRNAs encoding FOXA1, FOXA2, FOXA3, HNF4A, HNF1A, and GATA4 is herein referred to as 6TF. The 6TF mRNA mixture used in these studies contained the mRNA molecules at a molar ratio of 1:1:1:1:1:1. […]
Albumin (ALB) and α-fetoprotein (AFP) are genes expressed almost exclusively in cells of hepatocyte lineage. […] After 5 days and 9 days, gene expression levels for albumin and α-fetoprotein in the cells were determined by qPCR using methods as described above.
BJ fibroblasts were transfected once daily with 6TF mRNA mixture (See Table 6 above for 6TF mRNA cocktail composition) or each of the 5TF mRNA mixtures (described above and shown in Table 6) for 5 consecutive days, as described above. After 5 days, gene expression levels for albumin and AFP in the cells were determined by qPCR using methods as described above. […]

TLR3 = TLR3 activation on 11TF transfection with or without Poly I:C; format: cell-based, human; conditions: daily transfection and/or daily Poly I:C supplementation
Protocol: (See Lee et al., (2012) Cell 151:547-558.) Experiments were performed to examine whether 11TF mRNA mixture could activate TLR3 and to determine whether further activation would increase hepatic induction.
Experiments were performed to test whether daily supplementation with Poly I:C, a known TLR3 agonist, accompanying 11TF mRNA mixture transfection would further increase expression of albumin and AFP.

Row | Substance | AFP gene expression vs non-transfected control fibroblasts (BJ fibroblasts) | albumin gene expression vs non-transfected control fibroblasts (BJ fibroblasts) | TLR3 expression above control (TLR3)
1 | HNF1A: mRNA encoding only HNF1A | slightly above | slightly above | 
2 | Poly I:C |  |  | did not activate TLR3
